According to patent US4444773A, “Substituted thiazolo[3,2-a]pyrimidines and process for their preparation” (Farmitalia Carlo Erba S.p.A., priority 1981, dated 1984):

Experiments:
[1] = acute toxicity (LD50) in the mouse; details: in vivo, po, per os, single administration of increasing doses, measured on the seventh day, read-out: approximate acute toxicity (LD50)
Experimental: In view of their high therapeutic index, the compounds of the invention can be used safely in medicine. For example, the approximate acute toxicity (LD50) of the compounds 7-trans-[2-(3-pyridyl)-ethenyl]-5H-thiazolo[3,2-a]pyrimidine-5-one and 2-chloro-7-trans-[2-(3-pyridyl)-ethenyl]-5H-thiazolo[3,2-a]pyrimidine-5-one in the mouse determined by single administration of increasing doses and measured on the seventh day of treatment, is higher than 800 mg/kg per os. Analogous toxicity data have been found for other compounds of the invention.

[2] = system: phenylquinone induced writhing; assay: phenylquinone induced writhing test (Siegmund); format: in vivo, mice; details: Mus musculus; approximate ED25; printed 'in the rat', after oral administration; read-out: analgesic activity ED25, phenylquinone-induced writhing test
Text: (§1) A. Winter et al. (J. Pharmac. Exp. Therap. 1963, 141, 369) and P. Lence (Arch. Int. Pharmacodyn., 1962, 136, 237), and (B) the Reversed Passive Arthus Reaction (RPAR) in rat paw, induced by the interaction of antigen and antibody resulting in the formation of precipitating immune complex, followed by fixation of complement and accumulation of polymorphonuclear leucocytes at a focal point (D. K. GEMMELL, J. COTTNEY and A. J. LEWIS, Agents and Actions 9/1 pag. 107, 1979). The compounds of this invention are also endowed with analgesic activity. The analgesic activity was assessed, for example, by means of phenylquinone induced writhing test in mice according to Siegmund [Siegmund et al. Proc. Soc. Exper. Biol. Med., 95, 729 (1957)].
With regard to the analgesic activity, one of the preferred compounds of this invention is, for example, the compound 2-chloro-7-trans-[2-(3-pyridyl)-ethenyl]-5H-thiazolo[3,2-a]pyrimidine-5-one, wich has an approximate ED25 value of 25 mg/kg in the phenylquinone-induced writhing test in the rat, after oral administration. Furthermore the compounds of this invention are effective in the inhibiting the TXA2 synthetase in vivo and may be therefore useful in therapy, for example, in the prevention and treatment of all kinds of thrombosis, peripheral vasculopaties and coronary artery diseases.

[3] = system: Reversed Passive Arthus Reaction (RPAR); assay: Reversed Passive Arthus Reaction (RPAR) in rat paw; format: in vivo; details: approximate ED25, oral administration, read-out: Anti-inflammatory activity RPAR reaction ED25
Text: as §1
(§2) Therefore the compounds of the invention may be used in therapy to treat pains and inflammatory processes, such as for example, rheumatoid arthritis and osteoarthrosis. The following Tables II and III show, for example, the approximate ED25 values of the anti-inflammatory activity in the above tests in the rat after oral administration for some compounds of this invention: […]

restraint ulcers in rats = assay: inhibition of restraint ulcers in rats (Bonfils method); format: in vivo; details: po; approximate ED50; rat, per os one hour before immobilization, lesions counted 4 hours after immobilization; read-out: Antiulcerogenic activity p.o. ED50
Text: The compounds of the present invention are active on the gastroenteric system, in particular they are endowed with anti-ulcerogenic and gastric anti-secretory activity and are therefore useful in therapy, for example in the prevention and treatment of peptic, e.g. duodenal, gastric and esophageal, ulcers and to inhibit gastric acid secretion. The compounds of the invention are also useful for reducing the undesiderable gastrointestinal side-effects resulting from systemic administration of anti-inflammatory prostaglandin synthetase inhibitors and may be, therefore, used for this purpose in association with them. The anti-ulcerogenic activity of the compounds of the invention is shown, e.g., by the fact that they are active in the test of the inhibition of restraint ulcers in rats, according to the method of Bonfils et al., (Therapie, 1960, 5, 1096; Jap. J. Pharmac. 1945, 43, 5). Six Sprague-Dawley male rats (100-120 g) fasted 24 hours were used for the experiment: a square flexible small-mesh wire netting was used for the immobilization and 4 hours after the immobilization the rats were sacrificed, their stomachs were removed and the lesions counted under a dissecting microscope. The tested compounds were administered per os (p.o.) one hour before the immobilization.

[4] = system: carrageenin induced oedema; assay: carrageenin induced oedema in the hind paw of rats; format: in vivo; details: approximate ED25; rat, oral administration; read-out: Anti-inflammatory activity Carrageenin induced oedema ED25
Text: as §1, §2

[5] = system: gastric secretion in rats; assay: gastric antisecretory activity, pylorus ligature technique (Shay method); format: in vivo; details: approximate ED50; rat, intraduodenal administration at the time of ligature, 4 hours
Experimental: Gastric antisecretory activity was evaluated in rats by the pylorus ligature technique. Six Sprague-Dawley male rats (110-130 g) were used for each group. Twenty-four hours before the test, the rats were deprived of food but their water supply was maintained. On the day of the operation, the pylorus was ligated under light ether anaesthesia. Each compound was injected intraduodenally (i.d.) at the time of the ligature. Four hours after the ligature the rats were sacrificed, the stomach secretion was collected and centrifuged at 3500 r.p.m. for 10 minutes, and the volume, less sediment, was determined.
The amount of the free hydrochloric acid in the gastric juice was determined by titration against 0.01 N sodium hydroxide to pH 7.0.

TXA2 synthetase = molecular target: T1, TXA2 synthetase (Rattus norvegicus, UniProt P49430); assay: TXA2 synthetase inhibition in vivo, TXB2 concentration in serum; details: single oral dose of 10 mg/kg, TXB2 in serum two hours after administration
T1 construct: determining the concentration of TXB2 in the serum of the animals killed two hours after the administration of the drug; from tissue; host or cells: living rat, serum sampled after oral dosing (endogenous enzyme)
T1 sequence (P49430 1-533): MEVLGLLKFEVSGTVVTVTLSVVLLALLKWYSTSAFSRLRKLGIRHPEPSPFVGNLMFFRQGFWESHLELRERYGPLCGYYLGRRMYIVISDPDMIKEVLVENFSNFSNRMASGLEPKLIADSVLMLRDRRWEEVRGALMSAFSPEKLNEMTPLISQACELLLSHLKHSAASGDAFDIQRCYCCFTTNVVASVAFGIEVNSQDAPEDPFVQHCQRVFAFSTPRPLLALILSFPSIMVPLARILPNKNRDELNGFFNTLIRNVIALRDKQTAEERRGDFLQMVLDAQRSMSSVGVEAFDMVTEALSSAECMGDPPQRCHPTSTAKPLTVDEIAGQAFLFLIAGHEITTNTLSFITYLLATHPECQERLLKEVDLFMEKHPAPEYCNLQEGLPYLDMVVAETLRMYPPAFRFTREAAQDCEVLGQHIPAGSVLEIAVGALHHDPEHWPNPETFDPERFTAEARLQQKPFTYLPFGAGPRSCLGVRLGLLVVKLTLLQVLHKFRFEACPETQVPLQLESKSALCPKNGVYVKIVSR
Experimental: The activity on the TXA2 synthetase was evaluated, e.g., in rat by administering the compounds at a single oral dose of 10 mg/kg and determining the concentration of TXB2 in the serum of the animals killed two hours after the administration of the drug.

Structure (SMILES)	LD50 at 168 h [1] [mg/kg]	ED25 [2] [mg/kg]	ED25 [3] [mg/kg]	ED50 (restraint ulcers in rats) [mg/kg]	ED25 [4] [mg/kg]	ED50 [5] [mg/kg]	TXA2 synthetase inhibiting activity (TXA2 synthetase)
O=c1cc(/C=C/c2cccnc2)nc2sc(Cl)cn12 [2-chloro-7-trans-[2-(3-pyridyl)-ethenyl]-5H-thiazolo[3,2-a]pyrimidine-5-one]	> 800	~25	25	10	16	–	–
COc1c(/C=C/c2cccnc2)nc2sccn2c1=O [6-methoxy-7-trans-[2-(3-pyridyl)-ethenyl]-5H-thiazolo[3,2-a]pyrimidine-5-one]	–	–	–	–	15	~30	–
Cc1c(/C=C/c2cccnc2)nc2sccn2c1=O [6-methyl-7-trans-[2-(3-pyridyl)-ethenyl]-5H-thiazolo[3,2-a]pyrimidine-5-one]	–	–	–	–	–	–	having TXA2 synthetase inhibiting activity
O=c1cc(/C=C/c2cccnc2)nc2sccn12 [7-trans-[2-(3-pyridyl)-ethenyl]-5H-thiazolo[3,2-a]pyrimidine-5-one]	> 800	–	–	9	6	–	–
